# Entries after “also recorded” stand apart in the source; their conditions may differ.
# What was measured:
# [1] = tested on: Influenza-specific antibody; assay: Serum influenza-specific antibody by ELISA in experimental influenza model; conditions: influenza 6.5 Lg EID50 IN; 100 mg/kg IP QD 12 days; Day 12; compared to influenza-infected/vehicle treated controls
# total IgM = assay: Serum total IgM by ELISA in experimental influenza model; conditions: influenza 6.5 Lg EID50 IN; 100 mg/kg IP QD 12 days; Day 12; compared to influenza-infected/vehicle treated controls
# TNF-alpha = assay: Plasma TNF-alpha level by ELISA after intranasal LPS challenge; format: in vivo, mouse; conditions: Example 2; 100 mg/kg IP, all dosing paradigms; comparison to LPS/vehicle group
# Procedure: (§1) Intranasal administration of LPS: The LPS challenge was carried out according to Ma et al. (2019).
# (§2) Compound dosing: Animals in groups 2-5 were dosed according to the Table 2 for 6 days. Group 3 animals received 6 doses of MLR-1023 QD and a 7th dose 1 hour prior to LPS. Group 4 animals received 6 doses of MLR-1023 QD and Vehicle 1 hour prior to LPS. Group 5 animals received 6 Vehicle doses QD and 1 dose of MLR-1023 1 hour prior to LPS. On day 7, 1 hour after the last dose, animals were intranasally treated with LPS. Six hours after the instillation of LPS, animals received an IV dose of EBD. Thirty minutes later, animals were sacrificed, and the lungs were collected as previously described.
# in vivo = conditions: mouse
# [2] = tested on: mouse model of cytokine storm; assay: Lung Wet/Dry ratio assay after intranasal LPS challenge; format: in vivo; conditions: LPS 50 μg IN, compared to LPS/Vehicle group
# Procedure: Intranasal administration of LPS: The LPS challenge was carried out according to Ma et al., Inflammation, 2019, 42, 1901-1912.
# Compound dosing: Animals in groups 2-5 were dosed according to the Table 1 for 6 days. On day 7, 1 hour after the last dose, animals were intranasally treated with LPS. Dexamethasone (20 mg/kg PO) was administered 1 hour prior to LPS treatment. Six hours after the instillation of LPS, animals received an IV dose of EBD. Thirty minutes later, animals were sacrificed, and the lungs were collected as previously described.
# as §1, §2
# total IgG = assay: Serum total IgG by ELISA in experimental influenza model; conditions: influenza 6.5 Lg EID50 IN; 100 mg/kg IP QD 12 days; Day 12; compared to influenza-infected/vehicle treated controls
# IL-6 = assay: Plasma IL-6 level by ELISA after intranasal LPS challenge; format: in vivo, mouse; conditions: Example 2; 100 mg/kg IP, all dosing paradigms; comparison to LPS/vehicle group
# Procedure: as §1, §2
# [3] = tested on: mouse model of cytokine storm; assay: Evans Blue dye (EBD) assay of lung after intranasal LPS challenge; format: in vivo
structure (smiles),measurement,setting,value
"Cc1cccc(Oc2cnc(=O)[nH]c2)c1 [MLR-1023, tolimidone]",serum influenza-specific antibody level,[1],did not alter
same,serum total IgM level,total IgM,did not alter
same,plasma TNF-α concentration,TNF-alpha,did not produce significant effects
same,half-life,in vivo,~1.5 h
same,wet/dry ratio of the lung,"[2]; Example 1, C57Bl/6J male mice, MLR-1023 30 and 100 mg/kg IP QD 7 days, last dose 1 hr prior to LPS, dexamethasone 20 mg/kg PO 1 hr prior to LPS",significant dose dependent decrease
same,wet/dry ratio of the lung,"[2]; Example 2, 100 mg/kg IP, all dosing paradigms (7×, 6×, 1×)",significant decrease
same,serum total IgG level,total IgG,did not alter
same,plasma IL-6 concentration,IL-6,did not produce significant effects
same,Evans Blue content in the lung,"[3]; Example 1, C57Bl/6J male mice, LPS 50 μg IN, MLR-1023 30 and 100 mg/kg IP QD 7 days, last dose 1 hr prior to LPS, dexamethasone 20 mg/kg PO 1 hr prior to LPS, compared to LPS/Vehicle group",greater than that of dexamethasone and comparable to that of animals that received no LPS; also recorded: significant dose dependent decrease
same,Evans Blue dye content in the lungs (plasma extravasation),"[3]; Example 2, 100 mg/kg IP QD, 6 doses plus acute dose 1 hour before LPS challenge (7×), relative to the 6-dose paradigm",comparable level of reduced plasma extravasation
same,Evans Blue dye content in the lungs,"[3]; Example 2, 100 mg/kg IP QD, 6 doses, vehicle 1 hr prior to LPS (6×), compared to LPS/Vehicle group",significant decrease
same,Evans Blue dye content in the lungs (plasma extravasation),"[3]; Example 2, 100 mg/kg IP, single dose 1 hr prior to LPS challenge (1×)",did not yield reduction

# Source: patent US20220031700A1, “Treatment of Acute Respiratory Distress Syndrome (ARDS)” (priority 2020, published 2022)
